Experiments:
human recombinant FGFR1 = human recombinant FGFR1 (Homo sapiens, UniProt P11362); test: FGFR family enzymatic activity assay (Caliper-based kinase assay), FGFR1; format: biochemical; conditions: FGFR1 0.5 nM, ATP 100 μM, peptide substrate 1 μM, room temperature 3 h
Source text: A Caliper-based kinase assay (Caliper Life Sciences, Hopkinton, Mass.) was used to measure inhibition of FGFR family (FGFR1, FGFR2, FGFR3, FGFR4) kinase activity of a compound of Formula (I′) or (I). […] This value is presented as the IC50.

SNU-16 cells = test: Inhibition of FGFR2-dependent cell growth (Cell-titer Glo); format: cell-based; conditions: Homo sapiens, SNU16 cells, 72 hrs incubation, cell viability by Cell-titer Glo
Method: The cell-based effects of FGFR inhibitors were determined by measuring inhibition of FGFR-dependent cell line growth. […] Percent inhibition of cell growth was calculated as a percentage of untreated cell viability. The percent inhibition was plotted as a function of log compound concentration. The IC50 was then calculated for each compound using Prism software from GraphPad.

human recombinant FGFR1, sequence (P11362 22-822): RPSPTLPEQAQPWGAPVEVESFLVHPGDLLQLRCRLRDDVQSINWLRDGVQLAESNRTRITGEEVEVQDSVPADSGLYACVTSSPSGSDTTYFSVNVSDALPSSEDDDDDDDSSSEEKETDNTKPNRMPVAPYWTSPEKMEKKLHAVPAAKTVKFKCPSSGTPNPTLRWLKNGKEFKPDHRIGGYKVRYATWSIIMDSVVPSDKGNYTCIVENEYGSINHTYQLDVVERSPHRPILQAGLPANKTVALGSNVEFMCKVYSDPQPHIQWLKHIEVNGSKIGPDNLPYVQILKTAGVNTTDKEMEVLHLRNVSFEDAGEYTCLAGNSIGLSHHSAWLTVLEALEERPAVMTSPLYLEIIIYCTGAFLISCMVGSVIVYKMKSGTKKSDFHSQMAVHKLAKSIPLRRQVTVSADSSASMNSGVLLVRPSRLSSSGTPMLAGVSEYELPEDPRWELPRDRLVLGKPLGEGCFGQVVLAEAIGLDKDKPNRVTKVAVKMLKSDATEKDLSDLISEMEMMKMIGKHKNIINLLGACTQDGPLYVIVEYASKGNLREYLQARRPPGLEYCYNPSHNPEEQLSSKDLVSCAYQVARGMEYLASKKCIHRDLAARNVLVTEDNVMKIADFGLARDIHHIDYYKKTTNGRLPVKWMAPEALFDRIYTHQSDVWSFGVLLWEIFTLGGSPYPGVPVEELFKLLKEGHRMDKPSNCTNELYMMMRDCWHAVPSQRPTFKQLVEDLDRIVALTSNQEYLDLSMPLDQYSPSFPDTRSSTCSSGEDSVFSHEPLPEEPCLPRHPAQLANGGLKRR

| IC50 (human recombinant FGFR1) [nM] | IC50 (SNU-16 cells) [nM] | SMILES |
| --- | --- | --- |
| 2.2 | 13.3 | C=CC(=O)Nc1ccc(CCn2c(=O)c(-c3cc(OC)cc(OC)c3Cl)cc3cnc(NCCN4CCS(=O)(=O)CC4)nc32)cc1 [Example 74, N-(4-(2-(6-(2-chloro-3,5-dimethoxyphenyl)-2-((2-(1,1-dioxidothiomorpholino)-ethyl)amino)-7-oxopyrido[2,3-d]pyrimidin-8(7H)-yl)ethyl)phenyl)acrylamide] |
| 6.2 | – | C=CC(=O)Nc1ccc(CCn2c(=O)c(-c3cc(OC)cc(OC)c3Cl)cc3cnc(NC(C)(CO)CO)nc32)cc1 [Example 95, N-(4-(2-(6-(2-chloro-3,5-dimethoxyphenyl)-2-((1,3-dihydroxy-2-methylpropan-2-yl)amino)-7-oxopyrido[2,3-d]pyrimidin-8(7H)-yl)ethyl)phenyl)acrylamide] |
| 0.5 | 70.4 | C=CC(=O)Nc1ccc(CCn2c(=O)c(-c3cc(OC)cc(OC)c3Cl)cc3cnc(NCCN4[C@H](C)CNC[C@@H]4C)nc32)cc1 [Example 82, N-(4-(2-(6-(2-chloro-3,5-dimethoxyphenyl)-2-((2-((2R,6S)-2,6-dimethylpiperazin-1-yl)ethyl)amino)-7-oxopyrido[2,3-d]pyrimidin-8(7H)-yl)ethyl)phenyl)acrylamide] |
| 1.3 | 0.8 | C=CC(=O)Nc1ccc(CCn2c(=O)c(-c3cc(OC)cc(OC)c3Cl)cc3cnc(NCCN4C[C@@H](C)O[C@@H](C)C4)nc32)cc1 [Example 58, N-(4-(2-(6-(2-chloro-3,5-dimethoxyphenyl)-2-((2-((2R,6S)-2,6-dimethyl-morpholino)ethyl)-amino)-7-oxopyrido[2,3-d]pyrimidin-8(7H)-yl)ethyl)phenyl)acrylamide] |
| 3.7 | 5 | C=CC(=O)Nc1ccc(CCn2c(=O)c(-c3cc(OC)cc(OC)c3Cl)cc3cnc(NCCN4CCOCC4)nc32)cc1Cl [Example 56, N-(4-(2-(6-(2-chloro-3,5-dimethoxyphenyl)-2-((2-morpholinoethyl)amino)-7-oxopyrido[2,3-d]pyrimidin-8(7H)-yl)ethyl)-2-chlorophenyl)acrylamide] |
| 0.6 | 4.2 | C=CC(=O)Nc1ccc(CCn2c(=O)c(-c3cc(OC)cc(OC)c3Cl)cc3cnc(NCC(C)(C)CO)nc32)cc1 [Example 83, N-(4-(2-(6-(2-chloro-3,5-dimethoxyphenyl)-2-((3-hydroxy-2,2-dimethyl-propyl)amino)-7-oxopyrido[2,3-d]pyrimidin-8(7H)-yl)ethyl)phenyl)acrylamide] |
| 0.6 | 3.6 | C=CC(=O)Nc1ccc(CCn2c(=O)c(-c3cc(OC)cc(OC)c3Cl)cc3cnc(NCC4CC4)nc32)nc1 [Example 103, N-(6-(2-(6-(2-chloro-3,5-dimethoxyphenyl)-2-((cyclopropylmethyl)amino)-7-oxopyrido[2,3-d]pyrimidin-8(7H)-yl)ethyl)pyridin-3-yl)acrylamide] |
| 2.2 | 4.3 | C=CC(=O)Nc1ccc(CCn2c(=O)c(-c3cc(OC)cc(OC)c3Cl)cc3cnc(NCCN4CCOCC4)nc32)c(F)c1 [Example 55, N-(4-(2-(6-(2-chloro-3,5-dimethoxyphenyl)-2-((2-morpholinoethyl)amino)-7-oxopyrido[2,3-d]pyrimidin-8(7H)-yl)ethyl)-3-fluorophenyl)acrylamide] |
| 1.2 | – | C=CC(=O)Nc1ccc(CCn2c(=O)c(-c3cc(OC)cc(OC)c3Cl)cc3cnc(NCCN4C[C@@H](C)N[C@@H](C)C4)nc32)cc1 [Example 85, N-(4-(2-(6-(2-chloro-3,5-dimethoxyphenyl)-2-((2-((3S,5R)-3,5-dimethylpiperazin-1-yl)ethyl)amino)-7-oxopyrido[2,3-d]pyrimidin-8(7H)-yl)ethyl)phenyl)acrylamide] |
| 49.3 | – | C=CC(=O)Nc1ccc(CCn2c(=O)c(-c3cc(OC)cc(OC)c3Cl)cc3cnc(NCCN(CC)CC)nc32)cn1 [Example 29, N-(5-(2-(6-(2-chloro-3,5-dimethoxyphenyl)-2-((2-(diethylamino)ethyl)amino)-7-oxopyrido[2,3-d]pyrimidin-8(7H)-yl)ethyl)pyridin-2-yl)acrylamide] |
| 9.8 | – | C=CC(=O)Nc1ccc(CCn2c(=O)c(-c3cc(OC)cc(OC)c3Cl)cc3cnc(NCC4(O)CCN(C)CC4)nc32)cc1 [Example 96, N-(4-(2-(6-(2-chloro-3,5-dimethoxyphenyl)-2-(((4-hydroxy-1-methylpiperidin-4-yl)methyl)-amino)-7-oxopyrido[2,3-d]pyrimidin-8(7H)-yl)ethyl)phenyl)acrylamide] |
| 1.9 | – | C=CC(=O)Nc1ccc(CCn2c(=O)c(-c3cc(OC)cc(OC)c3Cl)cc3cnc(NCC(C)(C)N4CCOCC4)nc32)cc1 [Example 110, N-(4-(2-(6-(2-chloro-3,5-dimethoxyphenyl)-2-((2-methyl-2-morpholinopropyl)-amino)-7-oxopyrido[2,3-d]pyrimidin-8(7H)-yl)ethyl)phenyl)acrylamide] |
| 3.4 | – | C=CC(=O)Nc1ccc(CCn2c(=O)c(-c3cc(OC)cc(OC)c3Cl)cc3cnc(NCCN4CCC(F)(F)CC4)nc32)cc1 [Example 111, N-(4-(2-(6-(2-chloro-3,5-dimethoxyphenyl)-2-((2-(4,4-difluoropiperidin-1-yl)-ethyl)amino)-7-oxopyrido[2,3-d]pyrimidin-8(7H)-yl)ethyl)phenyl)acrylamide] |

The remaining lines, values behind:

| SMILES | IC50 (human recombinant FGFR1) [nM] | IC50 (SNU-16 cells) [nM] |
| --- | --- | --- |
| C=CC(=O)Nc1ccc(CCn2c(=O)c(-c3cc(OC)cc(OC)c3Cl)cc3cnc(NCC(C)(C)O)nc32)cn1 [Example 28, N-(5-(2-(6-(2-chloro-3,5-dimethoxyphenyl)-2-((2-hydroxy-2-methylpropyl)amino)-7-oxopyrido[2,3-d]pyrimidin-8(7H)-yl)ethyl)pyridin-2-yl)acrylamide] | 4.3 | 3.8 |
| C=CC(=O)Nc1ccc(CCn2c(=O)c(-c3cc(OC)cc(OC)c3Cl)cc3cnc(NCC(C)(C)C)nc32)cn1 [Example 30, N-(5-(2-(6-(2-chloro-3,5-dimethoxyphenyl)-2-(neopentylamino)-7-oxopyrido[2,3-d]pyrimidin-8(7H)-yl)ethyl)pyridin-2-yl)acrylamide] | 5.1 | 5 |
| C=CC(=O)Nc1nc(CCn2c(=O)c(-c3c(Cl)c(OC)cc(OC)c3Cl)cc3cnc(NC)nc32)cs1 [Example 41, N-(4-(2-(6-(2,6-dichloro-3,5-dimethoxyphenyl)-2-(methylamino)-7-oxopyrido[2,3-d]pyrimidin-8(7H)-yl)ethyl)thiazol-2-yl)acrylamide] | 5 | > 330 |
| C=CS(=O)(=O)Nc1cccc(CCn2c(=O)c(-c3cc(OC)cc(OC)c3Cl)cc3cnc(NC)nc32)c1 [Example 21, N-(3-(2-(6-(2-chloro-3,5-dimethoxyphenyl)-2-(methylamino)-7-oxopyrido[2,3-d]pyrimidin-8(7H)-yl)ethyl)phenyl)ethenesulfonamide] | 6.7 | 115 |
| C=CC(=O)Nc1ccc(CCn2c(=O)c(-c3cc(OC)cc(OC)c3Cl)cc3cnc(NCCCCN(CC)CC)nc32)cn1 [Example 32, N-(5-(2-(6-(2-chloro-3,5-dimethoxyphenyl)-2-((4-(diethylamino)butyl)amino)-7-oxopyrido[2,3-d]pyrimidin-8 (7H)-yl)ethyl)pyridin-2-yl)acrylamide] | 1.2 | 6.7 |
| C=CC(=O)Nc1cccc(CCn2c(=O)c(-c3cc(OC)cc(OC)c3F)cc3cnc(NCCCCN(CC)CC)nc32)c1 [Example 42, N-(3-(2-(6-(2-fluoro-3,5-dimethoxyphenyl)-2-(4-diethylaminobutylamino)-7-oxopyrido[2,3-d]pyrimidin-8(7H)-yl)ethyl)phenyl)acrylamide] | 1.8 | – |
| C=CC(=O)Nc1ccc(CCn2c(=O)c(-c3c(Cl)c(OC)cc(OC)c3Cl)cc3cnc(NC(C)(C)CO)nc32)cc1 [Example 77, N-(4-(2-(6-(2,6-dichloro-3,5-dimethoxyphenyl)-2-((1-hydroxy-2-methylpropan-2-yl)amino)-7-oxopyrido[2,3-d]pyrimidin-8(7H)-yl)ethyl)phenyl)acrylamide] | 2.3 | 7 |
| C=CC(=O)Nc1ccc(CCn2c(=O)c(-c3c(Cl)c(OC)cc(OC)c3Cl)cc3cnc(NC(CC)(CO)CO)nc32)nc1 [Example 100, N-(6-(2-(6-(2,6-dichloro-3,5-dimethoxyphenyl)-2-((1-hydroxy-2-(hydroxymethyl)-butan-2-yl)amino)-7-oxopyrido[2,3-d]pyrimidin-8(7H)-yl)ethyl)pyridin-3-yl)acrylamide] | – | 26.2 |
| C=CC(=O)Nc1ccc(CCn2c(=O)c(-c3c(Cl)cccc3Cl)cc3cnc(NC)nc32)nc1 [Example 107, N-(6-(2-(6-(2,6-dichlorophenyl)-2-(methylamino)-7-oxopyrido[2,3-d]pyrimidin-8(7H)-yl)ethyl)pyridin-3-yl)acrylamide] | 12.5 | – |
| C=CC(=O)Nc1cn(CCn2c(=O)c(-c3cc(OC)cc(OC)c3Cl)cc3cnc(NC)nc32)cn1 [Example 48, N-(1-(2-(6-(2-chloro-3,5-dimethoxyphenyl)-2-(methylamino)-7-oxopyrido[2,3-d]-pyrimidin-8(7H)-yl)ethyl)-1H-imidazol-4-yl)acrylamide] | 48 | – |
| C=CC(=O)Nc1ccc(CCn2c(=O)c(-c3cc(OC)cc(OC)c3Cl)cc3cnc(Nc4ccccn4)nc32)nc1 [Example 108, N-(6-(2-(6-(2-chloro-3,5-dimethoxyphenyl)-7-oxo-2-(pyridin-2-ylamino)pyrido[2,3-d]pyrimidin-8(7H)-yl)ethyl)pyridin-3-yl)acrylamide] | 8.2 | – |
| C=CC(=O)Nc1ccc(CCn2c(=O)c(-c3c(Cl)cccc3Cl)cc3cnc(NC)nc32)cc1 [Example 106, N-(4-(2-(6-(2,6-dichlorophenyl)-2-(methylamino)-7-oxopyrido[2,3-d]pyrimidin-8(7H)-yl)ethyl)phenyl)acrylamide] | 29.6 | – |
